One assay has as its system MCP-1 mRNA. Nature of the assay: MCP-1 mRNA expression in PMA-treated THP-1 cells by Northern blotting. Format: cell-based, human. Here is the method:
The effect of collagen-activation on the expression of MCP-1 mRNA in PMA-treated parental, mock-transduced, DDR1a-overexpressing, and DDR1b-overexpressing THP-1 cells was measured by Northern blotting. THP-1 cells were cultured at the cell density of 5×10^6, cells/ml in the complete medium in the presence of 10 nM PMA in 6 well tissue culture plates that were either uncoated or collagen-coated. Total RNA was extracted from each culture by using TRIZOL reagent® and Northern blot analysis was performed as described (Yoshimura, J. Immunol. 150:5025, 1993). IL-1β cDNA was obtained by RT-PCR from a human monocyte cDNA library using the following primer pair: sense primer 5′-[…]-3′ (SEQ ID NO: 13) and anti-sense primer 5′-[…]-3′ (SEQ ID NO: 14). Each cDNA was labeled with [α-^32P]dCTP using Rediprime™ II random prime labeling system (Amersham Pharmacia Biotech).

For the next assay, the target named is T1, DDR1b (Homo sapiens, UniProt Q08345).
T1 construct: one of the clones, clone 11B, contained the full-length human DDR1b cDNA; expressed in transfected cells; host or cells: THP-1 human monocytic leukemia cells, retroviral vector pLXSN, G418-selected clones
T1 sequence (Q08345 19-913): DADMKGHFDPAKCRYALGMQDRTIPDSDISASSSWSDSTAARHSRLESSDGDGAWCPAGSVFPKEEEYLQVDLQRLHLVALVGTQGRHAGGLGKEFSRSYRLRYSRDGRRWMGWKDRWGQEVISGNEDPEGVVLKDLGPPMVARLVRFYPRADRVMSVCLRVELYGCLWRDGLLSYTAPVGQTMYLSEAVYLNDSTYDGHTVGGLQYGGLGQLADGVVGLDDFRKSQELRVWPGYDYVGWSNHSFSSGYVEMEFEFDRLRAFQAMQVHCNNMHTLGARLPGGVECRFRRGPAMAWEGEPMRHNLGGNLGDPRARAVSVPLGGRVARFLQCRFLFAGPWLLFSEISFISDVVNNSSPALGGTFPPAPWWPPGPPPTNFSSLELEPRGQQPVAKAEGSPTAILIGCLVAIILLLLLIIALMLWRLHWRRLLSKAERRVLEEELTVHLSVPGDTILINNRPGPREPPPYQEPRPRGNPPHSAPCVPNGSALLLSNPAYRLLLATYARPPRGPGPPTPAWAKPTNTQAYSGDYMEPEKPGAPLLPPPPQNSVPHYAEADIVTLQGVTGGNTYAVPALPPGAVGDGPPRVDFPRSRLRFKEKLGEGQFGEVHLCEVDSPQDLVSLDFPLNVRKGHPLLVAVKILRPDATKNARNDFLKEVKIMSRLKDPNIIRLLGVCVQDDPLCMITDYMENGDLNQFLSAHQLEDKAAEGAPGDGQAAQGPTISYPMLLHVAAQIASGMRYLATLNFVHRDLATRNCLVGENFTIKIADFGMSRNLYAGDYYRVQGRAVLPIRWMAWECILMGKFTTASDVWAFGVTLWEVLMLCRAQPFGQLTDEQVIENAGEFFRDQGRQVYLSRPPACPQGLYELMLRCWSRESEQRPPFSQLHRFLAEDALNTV
Nature of the assay: Autophosphorylation of DDR1b overexpressed in THP-1 cells. It is filed as cell-based. Here is the method:
Using the retrovirus-infected cell lines, the effect of collagen type I on the phosphorylation of DDR1 proteins was tested. Two million cells in 3 ml complete medium were added onto collagen type I-coated plastic plates and incubated at 37° C. for various times. Cell lysates were prepared and immunoprecipitation was performed with the anti-DDR1 antibody. One-fourth of the immunoprecipitated samples was subjected to SDS-PAGE and Western blotting. The membranes were blotted with anti-pTyr and anti-DDR1 antibody. Low levels of constitutive autophosphorylation of both receptors were detected. The levels of autophosphorylation increased slightly at 15 minutes and peaked at 90 minutes after activation of the cells on collagen type I-coated plastic plates. The peak level was maintained for up to 240 minutes for DDR1a, which is consistent with the previously reported delayed kinetics of […] autophosphorylation in other cell types (Vogel FASEB J, (Suppl.), S77-S82, 1999). In contrast, autophosphorylation of DDR1b decreased after 90 minutes of collagen-activation.
Parental, mock, DDR1a- or DDR1b-overexpressing THP-1 cells were plated at 5×10^6/ml on uncoated tissue culture plates and stimulated with PMA (10 nM) for 24 hours, and then starved in RMPI 1640 without FCS for 10 hours. Subsequently cells were washed three times with PBS, and then incubated in the presence of 50 μg/ml collagen type I for various times.
Ten million cells were lysed on ice for 20 minutes in a buffer containing 50 mM NaCl, 20 mM Tris-HCl, 50 mM sodium fluoride, 30 mM Na4P2O7, 5 mM EGTA, 3 mM sodium orthovanadate, 1% Triton X-100, 1 mg/ml leupeptin, 1 mM PMSF, 1 mg/ml aprotinin, 1 mg/ml pepstatinA and 100 μM sodium orthovanadate treated with H2O2. […]
Eluted proteins were analyzed on 8% polyacrylamide gels by SDS-PAGE and transferred electrophoretically to nitrocellulose membranes at 150 mA for 1 hour by a semi-dry system. […] To detect phosphorylated or nonphosphorylated p38 MAP kinase or ATF-2, 20 μl of cell lysates were directly mixed with 20 μl of sample buffer and then analyzed.

The test system of a further assay is GM-macrophages. As to the kind of experiment: HLA-DR expression on GM-macrophages. Conditions: pretreatment of 5-day GM-macrophages, 30 minutes. Format: cell-based, human. Here is the method:
The leukocyte-rich preparation was overlaid on Accu-prep in 50 ml tubes and the tubes were centrifuged at 800×g for 20 minutes at room temperature. PBMC fractions were collected, washed once with PBS at room temperature and twice with complete medium at 4° C. and resuspended in the same medium. Monocytes were further purified by using iso-osmotic Percoll gradient. At this stage, the purity of monocytes was higher than 90%. The cells (5×10^5/ml) were allowed to adhere to the surface of 6-well plates. After a 5-hour incubation at 37° C., nonadherent cells were removed and adherent cells were induced to differentiate into macrophages by incubation in the presence of GM-CSF (50 ng/ml) for 5 to 7 days to produce GM-CSF-induced macrophages (GM-macrophages). Five-day GM-macrophages were incubated for additional 2 days with GM-CSF in the presence of an agonistic anti-human DDR1 monoclonal mouse against the extracellular domain of DDR1 (IgM 513). To measure the effect of SB203580, 5-day GM-macrophages were pretreated with SB203580, for 30 minutes.

The subject of a further assay is DDR1. Nature of the assay: DDR1 autophosphorylation and MAP kinase phosphorylation in iDC and mDC. It is filed as cell-based, human. Conditions: DCs, TNF-α stimulation. Here is the method: To measure the kinetics of DDR1autophosphorylation, 1×10^7 iDC or TNF-α-induced mDCs were plated on dishes, serum-starved in RPMI 1640 containing 1% FCS for 10 hours, and subsequently activated with agonistic anti-DDR1 IgM (5 μg/ml) or control IgM (5 ug/ml) for varous times. Cell lysates were prepared, DDR1 was immunoprecipitated using anti-DDR1 Ab (C-20), and tyrosine-phosphorylation of DDR1 was analyzed by Western blotting using a mouse monoclonal anti-phosphotyrosine IgG and a sheep anti-mouse IgG coupled with horseradish peroxidase. Peroxidase activity was visualized by the Enhanced Chemiluminescence Detection System (Amersham).
To detect phosphorylation of MAP kinases, ATF2, or MKK3/6, iDC and mDC were activated with agonistic 513 anti-DDR1 IgM or control IgM for varous times. Since TNF-α is known to activate p38 MAP kinase (Ono and Han, Cell. Signal. 12:1-13, 2000), cells were washed 6 times with PBS before activation in order to minimize the effect of TNF-α. Twenty μl of cell lysates were directly mixed with 20 μl of sample buffer and then analyzed.

[1] abbreviates: PMA-treated cells, 50 μg/ml collagen type I.

DDR1, sequence (Q08345 19-417 limits assumed): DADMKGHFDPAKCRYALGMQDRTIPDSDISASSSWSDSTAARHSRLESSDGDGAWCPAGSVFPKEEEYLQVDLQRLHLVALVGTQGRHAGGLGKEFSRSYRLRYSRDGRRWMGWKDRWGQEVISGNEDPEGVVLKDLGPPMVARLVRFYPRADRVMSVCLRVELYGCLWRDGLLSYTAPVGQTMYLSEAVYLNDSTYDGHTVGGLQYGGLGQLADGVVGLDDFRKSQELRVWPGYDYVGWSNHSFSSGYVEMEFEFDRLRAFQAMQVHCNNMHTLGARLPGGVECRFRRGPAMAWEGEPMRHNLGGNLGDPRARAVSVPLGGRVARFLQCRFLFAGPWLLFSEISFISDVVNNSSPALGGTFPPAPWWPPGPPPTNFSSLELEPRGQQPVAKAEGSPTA

Consider collagen, for which the “level of MCP-1 mRNA expression” value in the assay on MCP-1 mRNA (PMA-treated DDR1b-overexpressing cells on collagen-coated plates) is given as “rapidly up-regulated”. In addition, the “MCP-1 mRNA expression” value in the assay with MCP-1 mRNA (PMA-treated parental cells) is on record as “no effect”. At DDR1b (setting [1]), the time autophosphorylation detectable turned out to be 30 min and the “time of peak autophosphorylation” value was determined as 60 min. On DDR1b (collagen type I-coated plates, cells not PMA-treated), the “time of peak autophosphorylation” value was found to be 90 min.

Consider `C[S+]([O-])c1ccc(-c2nc(-c3ccncc3)c(-c3ccc(F)cc3)[nH]2)cc1` (stereo not shown) [SB203580], for which the “agonistic antibody-induced increase of HLA-DR-positive cells” value in the assay on GM-macrophages was “completely inhibited”.

On to TNF-α, for which the “activation of ERK1, ERK2, JNK, MKK3/6” value in the assay on DDR1 is “rapidly activated”.

Values taken from patent publication US7855076B2, “Use of discoidin domain receptor 1 (DDR1) and agents that affect the DDR1/collagen pathway” (The United States of America as represented by the …, priority 2002, dated 2010).
